Counter-ions that a name gives are not always drawn. Like-named read-outs stand apart in the source and are kept apart here.
Columns and labels:
[1] = system: iCell endothelial cells (human iPSC-derived ECs); test: Tube formation (tubulogenesis) assay in iCell endothelial cells, 18 h; format: cell-based; details: Homo sapiens, Endothelial cell; for activity at 0.1 µM: 0.10 µM
Outline: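 iCell ECs (passages 1–5) seeded 7,500 cells/well on reduced-growth-factor Geltrex in starvation medium, exposed overnight at 37°C to compounds in triplicate concentration–response (0.5% DMSO vehicle). Calcein AM staining, 4× imaging, angiogenesis image analysis; readouts normalized to vehicle, four-parameter logistic fit, POD at 1 SD of vehicle; 100 μM assigned NOAEL if no response.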

[2] = system: iCell endothelial cells (human iPSC-derived ECs); test: High-content imaging cytotoxicity in iCell endothelial cells, 24 h; format: cell-based; details: Homo sapiens, Endothelial cell; for viability at 0.1 µM / activity at 0.1 µM: 0.10 µM
Outline: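 Human iPSC-derived endothelial cells (passages 1–5) were grown to a fibronectin-coated monolayer, then exposed 24 h at 37 °C with 0.5% DMSO vehicle. Staining was Hoechst 33342, MitoTracker Orange and calcein AM, read by high-content imaging. Point of departure came from 4-parameter logistic fits, with a 1-SD vehicle cutoff and 100 µM as the top concentration.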

[3] = iPSC-EC, 0.00 µM = 100.00, read-out: endo.mtl.18hr
[4] = iPSC-EC, 0.00 µM = 100.00, read-out: endo.tlps.18hr
[5] = iPSC-EC, 0.00 µM = 100.00, read-out: endo.tta.18hr
[6] = iPSC-EC, 0.00 µM = 100.00, read-out: endo.ttl.18hr
[7] = iPSC-EC, 0.00 µM = 100.00, read-out: endo.cyto.24hr
[8] = iPSC-EC, 0.00 µM = 100.00, read-out: endo.mito.24hr
[9] = iPSC-EC, 0.00 µM = 100.00, read-out: endo.mitoint.24hr
[10] = iPSC-EC, 0.00 µM = 100.00, read-out: endo.nma.24hr
[11] = iPSC-EC, 0.00 µM = 100.00, read-out: endo.tc.24hrs

COc1cc(Cl)c(-c2cc(Cl)ccc2Cl)cc1Cl [4-OMe PCB52]
activity at 0.01 µM [1, 3]: 120% | activity at 0.01 µM [1, 4]: 104% | activity at 0.01 µM [1, 5]: 141% | activity at 0.01 µM [1, 6]: 150% | activity at 0.1 µM [1, 3]: 112% | activity at 0.1 µM [1, 4]: 113% | activity at 0.1 µM [1, 5]: 116% | activity at 0.1 µM [1, 6]: 123% | activity at 1 µM [1, 3]: 119% | activity at 1 µM [1, 4]: 114% | activity at 1 µM [1, 5]: 121% | activity at 1 µM [1, 6]: 132% | activity at 10 µM [1, 3]: 114% | activity at 10 µM [1, 4]: 131% | activity at 10 µM [1, 5]: 136% | activity at 10 µM [1, 6]: 142% | activity at 100 µM [1, 3]: 49.4% | activity at 100 µM [1, 4]: 15.9% | activity at 100 µM [1, 5]: 6.4% | activity at 100 µM [1, 6]: 8.34% | minimal effective concentration ([1]; iPSC-EC, 100.00 = highest concentration tested, read-out: endo.mtl.18hr POD): 52 µM | minimal effective concentration ([1]; iPSC-EC, 100.00 = highest concentration tested, read-out: endo.tlps.18hr POD): 56 µM | minimal effective concentration ([1]; iPSC-EC, 100.00 = highest concentration tested, read-out: endo.tta.18hr POD): 51.6 µM | minimal effective concentration ([1]; iPSC-EC, 100.00 = highest concentration tested, read-out: endo.ttl.18hr POD): 54.7 µM | viability at 0.01 µM [2, 7]: 104% | activity at 0.01 µM [2, 8]: 104% | activity at 0.01 µM [2, 9]: 88.9% | activity at 0.01 µM [2, 10]: 102% | viability at 0.01 µM [2, 11]: 104% | viability at 0.1 µM [2, 7]: 101% | activity at 0.1 µM [2, 8]: 101% | activity at 0.1 µM [2, 9]: 88% | activity at 0.1 µM [2, 10]: 102% | viability at 0.1 µM [2, 11]: 101% | viability at 1 µM [2, 7]: 104% | activity at 1 µM [2, 8]: 103% | activity at 1 µM [2, 9]: 84.8% | activity at 1 µM [2, 10]: 100% | viability at 1 µM [2, 11]: 104% | viability at 10 µM [2, 7]: 106% | activity at 10 µM [2, 8]: 106% | activity at 10 µM [2, 9]: 92.2% | activity at 10 µM [2, 10]: 99.7% | viability at 10 µM [2, 11]: 106% | viability at 100 µM [2, 7]: 53.2% | activity at 100 µM [2, 8]: 48.4% | activity at 100 µM [2, 9]: 74.5% | activity at 100 µM [2, 10]: 117% | viability at 100 µM [2, 11]: 56.6% | minimal effective concentration ([2]; iPSC-EC, 100.00 = highest concentration tested, read-out: endo.cyto.24hr POD): 43.5 µM | minimal effective concentration ([2]; iPSC-EC, 100.00 = highest concentration tested, read-out: endo.mito.24hr POD): 43.5 µM | minimal effective concentration ([2]; iPSC-EC, 100.00 = highest concentration tested, read-out: endo.mitoint.24hr POD): 100 µM | minimal effective concentration ([2]; iPSC-EC, 100.00 = highest concentration tested, read-out: endo.nma.24hr POD): 56.1 µM | minimal effective concentration ([2]; iPSC-EC, 100.00 = highest concentration tested, read-out: endo.tc.24hrs POD): 40.3 µM

O=S(=O)(O)Oc1ccc(-c2ccc(Cl)cc2)cc1 [4'-PCB 3 sulfate]
minimal effective concentration ([1]; endothelial cells (endo), tube formation mtl, 18 hr, read-out: POD endo.mtl.18hr): 4.33 µM | minimal effective concentration ([1]; endothelial cells (endo), tube formation tlps, 18 hr, read-out: POD endo.tlps.18hr): 11.7 µM | minimal effective concentration ([1]; endothelial cells (endo), tube formation tta, 18 hr, read-out: POD endo.tta.18hr): 16.8 µM | minimal effective concentration ([1]; endothelial cells (endo), tube formation ttl, 18 hr, read-out: POD endo.ttl.18hr): 11 µM | minimal effective concentration ([2]; endothelial cells (endo), cyto, 24 hr, read-out: POD endo.cyto.24hr): 100 µM | minimal effective concentration ([2]; endothelial cells (endo), mito, 24 hr, read-out: POD endo.mito.24hr): 100 µM | minimal effective concentration ([2]; endothelial cells (endo), mitoint, 24 hr, read-out: POD endo.mitoint.24hr): 100 µM | minimal effective concentration ([2]; endothelial cells (endo), nma, 24 hr, read-out: POD endo.nma.24hr): 100 µM | minimal effective concentration ([2]; endothelial cells (endo), tc, 24 hr, read-out: POD endo.tc.24hr): 100 µM

— paper PMC7377239, “Cardiovascular Effects of Polychlorinated Biphenyls and Their Major Metabolites” (Environmental Health Perspectives, 2020)
